From PubChem BioAssay (NCI)
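Five concentrations, 48 hours, 96-well plates. GI50 = concentration required for 50% inhibition of growth. At the TGI there is no net growth.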

Legend:
Assay in all cases: NCI-60 cell line screen, 48 h
[1] = test system: A498 renal
[2] = test system: COLO 205 colon
[3] = test system: DU-145 prostate
[4] = test system: HCT-116 colon
[5] = test system: IGROV1 ovarian
[6] = test system: M14 melanoma
[7] = test system: NCI-H460 lung
[8] = test system: NCI-H522 lung
[9] = test system: OVCAR-4 ovarian
[10] = test system: SF-539 CNS

SMILES | GI50 [1] [µM] | TGI [1] [µM] | GI50 [2] [µM] | TGI [2] [µM] | GI50 [3] [µM] | TGI [3] [µM] | GI50 [4] [µM] | TGI [4] [µM] | GI50 [5] [µM] | TGI [5] [µM] | GI50 [6] [µM] | TGI [6] [µM] | GI50 [7] [µM] | TGI [7] [µM] | GI50 [8] [µM] | TGI [8] [µM] | GI50 [9] [µM] | TGI [9] [µM] | GI50 [10] [µM] | TGI [10] [µM]
COc1cc2cc(NCc3cccc(Cl)c3)nc(C)c2cc1OC | 1.17 | 11.6 | 1.62 | 9.3 | 5.41 | 20.9 | 0.532 | 9.63 | 1.32 | 13.9 | 0.52 | 10.1 | 1.27 | 14.6 | 1.01 | 10.4 | 1.83 | 25.4 | 1.37 | 7.54
O=P1(NCCCl)OCCCN1CCCl (stereo not given) | – | 462 | – | 428 | – | > 500 | – | 440 | – | 457 | – | > 500 | – | 448 | – | 360 | – | 447 | – | 413
O=C1NC(=O)C(c2c[nH]c3ccccc23)=C1c1c[nH]c2ccccc12 | 3.34 | > 25 | 9.18 | > 25 | > 21.2 | > 25 | 9.33 | > 25 | > 20.9 | > 25 | 10.9 | > 25 | 10.6 | > 25 | 8.11 | > 25 | 10.9 | > 25 | 9.73 | > 25
CCOc1ccc(N(C)c2ccc(/C=C/C3=[N+](C)c4ccccc4C3(C)C)cc2)cc1 | 0.189 | 10.2 | 0.211 | 0.81 | 0.421 | 1.86 | 0.0725 | 1.1 | 0.257 | 0.982 | 0.366 | 1.73 | 0.306 | 1.38 | 0.167 | 0.78 | 0.399 | 2.18 | 0.771 | 2.2
CC1CCCCCC(=O)c2c(O)cc(O)cc2CC(=O)O1 (stereo not given) | – | > 100 | – | > 100 | – | > 100 | – | > 100 | – | > 100 | – | > 100 | – | > 100 | – | > 100 | – | > 100 | – | > 100
C=C(CO)C(=O)OC1CC(=C)C2CC(O)C(C)C2C2OC(=O)C(=C)C12 (stereo not given) | – | > 100 | – | 90.4 | – | > 100 | – | > 100 | – | 39.3 | – | 33.4 | – | > 100 | – | 45.8 | – | > 100 | – | 37.8
CCC(=C(c1ccc(OCCN2CCCCC2)cc1)c1ccc(OCCN2CCCCC2)cc1)c1ccc(Cl)cc1 | > 16.7 | > 16.7 | 3.59 | 9.01 | > 16.7 | > 16.7 | 1.56 | > 16.7 | 12.9 | > 16.7 | 0.669 | 2.65 | 5.7 | > 16.7 | 7.72 | > 16.7 | > 16.7 | > 16.7 | 2.55 | 5.02
O=c1nc2n(-c3cccc(Cl)c3)c3ccc([N+](=O)[O-])cc3cc-2c(=O)[nH]1 | 16.7 | > 25 | 7.94 | > 25 | 6.73 | > 25 | 1.53 | 5.68 | 17.4 | > 25 | 6.55 | 16.8 | 9.77 | > 25 | 7.37 | 21.6 | > 25 | > 25 | 4.4 | 11.8
COc1cc(/C=C/C(=O)c2cccc(-n3cc(-c4ccccc4)[nH]c3=O)c2)cc(OC)c1OC | 2.65 | 6.63 | 1.51 | 2.83 | 2.16 | 7.85 | 0.332 | 1.2 | 2 | 4.7 | 1.35 | 2.72 | 1.4 | 2.69 | 0.958 | 2.52 | 1.88 | 5.07 | 1.68 | 3.12
O=c1[nH]c2ccccc2n1C1CCNCC1 | 24.4 | > 100 | > 100 | > 100 | > 100 | > 100 | > 100 | > 100 | > 100 | > 100 | > 100 | > 100 | > 100 | > 100 | > 100 | > 100 | > 100 | > 100 | > 100 | > 100
O=[N+]([O-])c1ccc(C2=NCCO2)cc1 | > 100 | > 100 | > 100 | > 100 | > 100 | > 100 | > 100 | > 100 | > 100 | > 100 | > 100 | > 100 | > 100 | > 100 | > 100 | > 100 | > 100 | > 100 | > 100 | > 100
COC(=O)[C@@H](C)C[C@H](Cc1ccccc1)NC(=O)c1nc([C@@H](C[C@H](C(C)C)N(C)C(=O)[C@@H](NC(=O)[C@H]2C[C@H](O)CCN2C)C(C)C)OC(C)=O)sc1C(C)C | 0.00752 | 0.0881 | 0.00692 | 0.104 | 0.00395 | – | 0.004 | 3.88 | 0.00324 | > 11.1 | 0.0149 | 1.24 | 0.0076 | > 11.1 | 0.00186 | – | 0.0493 | > 11.1 | 0.0159 | 0.0505
C/C(=C\C(=O)O[C@H]1[C@@H]2[C@H](C)CC[C@H]2[C@]2(C)O[C@@]1(C1CCCCC1)C[C@H]2OC(=O)CO)c1ccccc1 | 0.0164 | 0.114 | 7.61 | 15 | 7.01 | 12.6 | 6.18 | 12 | 7.58 | 14.7 | 7.95 | 18.1 | 6.86 | 14.1 | 6.55 | 13.1 | 7.25 | 13.8 | 7.1 | 13.2
O=C1C=C(Nc2ccccc2)c2ccccc2C1=O | 1.96 | 5.26 | 1.96 | 3.61 | 1.84 | 3.29 | 2.15 | 5.49 | 2.78 | 7.31 | 1.96 | 3.65 | 2.44 | 6.47 | 1.67 | 3.36 | 1.68 | 3.53 | 1.81 | 3.47
O=C(NCc1cn(Cc2cccc(Oc3ccccc3)c2)nn1)c1cccnc1Nc1ccc(F)cc1 | 13.7 | 95.1 | 6.22 | > 100 | 8.58 | > 100 | 5.02 | > 100 | 30.7 | > 100 | 13.7 | > 100 | 5.25 | > 100 | 10.8 | > 100 | 23.4 | > 100 | 15.1 | > 100
Cn1cc(C2=C(c3ccsc3)C(=O)NC2=O)c2ccccc21 | 12.1 | > 25 | > 25 | > 25 | > 25 | > 25 | > 25 | > 25 | > 25 | > 25 | > 25 | > 25 | > 25 | > 25 | > 25 | > 25 | > 25 | > 25 | 24.2 | > 25
Nc1c(C(=O)Nc2cccc(Cl)c2)sc2nc3c(cc12)C(=O)CCC3 | 0.134 | – | 0.288 | – | 0.377 | > 100 | 0.431 | > 100 | 2.28 | > 100 | 0.485 | > 100 | 0.322 | > 100 | 0.19 | 0.788 | 13.3 | > 100 | 0.586 | > 100
C[N+]1([O-])C2CCC1CC(OC(=O)C(CO)c1ccccc1)C2 (stereo not given) | – | > 100 | – | > 100 | – | > 100 | – | > 100 | – | > 100 | – | > 100 | – | > 100 | – | > 100 | – | > 100 | – | > 100
CN(C)CCNC(=O)c1cc2c3cc(Cl)ccc3[nH]c2c2ncccc12 | 3.52 | 13.1 | 1.97 | 10.5 | 3.4 | 12.7 | 1.52 | 4.68 | 1.52 | 4.34 | 1.7 | 3.68 | 2.57 | 10.7 | 2.26 | 7.11 | 4.89 | 19.6 | 1.57 | 3.14
Cc1cc(I)cc(CNCCN(C)C)c1O | 61.5 | > 100 | > 100 | > 100 | 98.8 | > 100 | > 68 | > 100 | 48.4 | > 100 | 33.9 | > 100 | 44.1 | > 100 | > 86.3 | > 100 | > 93.1 | > 100 | > 89.9 | > 100
CN1C(=O)C(c2c[nH]c3ccccc23)=C(c2c[nH]c3ccccc23)C1=O | 3.55 | 17.2 | 4.77 | 12.4 | 9.38 | > 25 | 6.75 | > 25 | 5.47 | > 22.8 | 5.96 | 17.2 | 5.52 | 15 | 4.69 | 12.5 | 7.58 | > 25 | 6.87 | > 25
C=CCC1(O)c2ccccc2C(=O)c2c(OCC(=O)OCC)ccc(OCC(=O)OCC)c21 (stereo not given) | > 100 | > 100 | > 100 | > 100 | > 100 | > 100 | > 100 | > 100 | > 100 | > 100 | > 100 | > 100 | 84.9 | > 100 | > 100 | > 100 | > 100 | > 100 | > 100 | > 100
C=CC1(C)CCC2C(=CCC3C2(C)CC(O)C(O)C3(C)COC2OC(CO)C(O)C(O)C2O)C1 (stereo not given) | – | > 100 | – | > 100 | – | > 100 | – | > 100 | – | > 100 | – | > 100 | – | > 100 | – | > 100 | – | > 100 | – | > 100
N#CC1=C(N)Oc2c(sc3c(Br)cccc23)C1c1ccc([N+](=O)[O-])cc1 (stereo not given) | 0.0434 | 0.935 | 0.224 | 1.14 | 0.14 | 9.26 | 0.0799 | 11 | 0.33 | 18.4 | 0.0964 | 11.8 | 0.0655 | 10.4 | 0.0216 | 0.616 | 0.9 | 18.7 | 0.0619 | 0.475
Cn1cc(-c2ccc3nc(-c4ccc(CC(=O)Nc5cc(C(C)(C)C)no5)cc4)cnc3c2)cn1 | 0.0439 | 0.185 | – | > 3 | 0.0296 | > 3 | 0.029 | > 3 | 0.013 | > 1.21 | 0.0172 | > 3 | 0.0289 | > 3 | 0.0498 | > 3 | 0.0193 | > 3 | 0.0274 | > 3
C[C@@H]1CN2[C@H]3[C@@H]1CC[C@]31CCC(=O)O[C@]1(C)[C@H]1CC[C@H]3CCC=C3[C@@H]12 | > 30 | > 30 | > 30 | > 30 | > 30 | > 30 | > 30 | > 30 | > 30 | > 30 | > 30 | > 30 | > 30 | > 30 | > 30 | > 30 | > 30 | > 30 | > 30 | > 30
